Laboratory results taken from ChEMBL document CHEMBL3044802, “Synthesis, in vitro antimicrobial and antioxidant activities of chalcone and flavone derivatives holding allylic substitutions” (Med Chem Res, 2011).
Converted amounts (≈) assume the structure as drawn.

Assays:
Type in all cases: functional
[1] = tested on: Staphylococcus epidermidis; experiment: Antimicrobial activity against Staphylococcus epidermidis after overnight incubation by conventional agar-dilution method
[2] = tested on: Radical scavenging activity; experiment: Antioxidant activity assessed as DPPH free radical scavenging activity after 30 min by UV-VIS spectrophotometer analysis
[3] = Antioxidant activity assessed as Fe2+ reducing power after 20 min
Kluyveromyces marxianus = experiment: Antimicrobial activity against Kluyveromyces marxianus after overnight incubation by conventional agar-dilution method
Escherichia coli = experiment: Antimicrobial activity against Escherichia coli after overnight incubation by conventional agar-dilution method
Staphylococcus aureus = experiment: Antimicrobial activity against Staphylococcus aureus after overnight incubation by conventional agar dilution method

| Structure (SMILES) | MIC [1] | IC50 [2] | IC50 [3] | MIC (Kluyveromyces marxianus) | MIC (Escherichia coli) | MIC (Staphylococcus aureus) |
| --- | --- | --- | --- | --- | --- | --- |
| C=CCOc1c(OC)cccc1-c1cc(=O)c2cccc(CC=C)c2o1 | > 1000 µg/mL | 320 µM | 1.11 µM | 512 µg/mL (≈ 1470 µM) | > 512 µg/mL | > 1000 µg/mL |
| C=CCOc1ccc(/C=C/C(=O)c2cccc(CC=C)c2O)cc1OC | > 1000 µg/mL | 85 µM | 2.96 µM | 512 µg/mL (≈ 1460 µM) | 512 µg/mL (≈ 1460 µM) | > 1000 µg/mL |
| OC(Cn1cncn1)(Cn1cncn1)c1ccc(F)cc1F [FLUCONAZOLE] |  |  |  | 4 µg/mL (≈ 13.1 µM) |  |  |
| Cc1cc(NS(=O)(=O)c2ccc(N)cc2)no1 [SULFAMETHOXAZOLE] | 4 µg/mL (≈ 15.8 µM) |  |  |  | 4 µg/mL (≈ 15.8 µM) | 4 µg/mL (≈ 15.8 µM) |
| Cc1c(C)c2c(c(C)c1O)CCC(C)(C(=O)O)O2 (stereo not given) [TROLOX] |  | 36 µM | 41.9 µM |  |  |  |
| C=CCOc1c(/C=C/C(=O)c2cccc(CC=C)c2O)cccc1OC | > 1000 µg/mL | 163 µM | 1.87 µM | 512 µg/mL (≈ 1460 µM) | 512 µg/mL (≈ 1460 µM) | > 1000 µg/mL |
| C=CCOc1ccc(-c2cc(=O)c3cccc(CC=C)c3o2)cc1OC | > 1000 µg/mL | 270 µM | 0.57 µM | > 512 µg/mL | > 512 µg/mL | > 1000 µg/mL |
